Tests used:
Assay type in all cases: in vivo
Apogee wheat = experiment: Heat stress tolerance in wheat following ACC application at Feekes stage 5 (Example 3); conditions: heat stress 34/28° C. 4 days; for % Reproductive Tillers / Fresh Weight / Total Dry Weight / Total Spike Number / Total Tiller Number / Δ Canopy Density: n = 8; for % Reproductive Tillers, percent increase over stress control / Fresh Weight, percent increase over stress control / Total Dry Weight, percent increase over stress control / Total Spike Number, percent increase over stress control / Total Tiller Number, percent increase over stress control / Δ Canopy Density, percent increase over stress control: vs stress control (no heat); for % Reproductive Tillers, percent increase over treatment control / Fresh Weight, percent increase over treatment control / Total Dry Weight, percent increase over treatment control / Total Spike Number, percent increase over treatment control / Total Tiller Number, percent increase over treatment control / Δ Canopy Density, percent increase over treatment control: vs treatment control (heat, no ACC)
Method: Apogee wheat was seeded into ProMix BX (Premier Horticulture) and grown in a growth cabinet under the following conditions: 24/18° C. day/night temperature under a 16/8 hour light/dark photoperiod. Plants were at Feekes stage 5 following the first set of growth conditions. Next, spray applications of 0, 0, 100 or 300 ppm ACC (n=8) were made using a track sprayer on Oct. 4, 2019. […] These conditions constitute significant heat stress. The other set of control plants (“stress control”) remained in the first growth cabinet. Finally, the plants were then returned to the first growth cabinet for about 14 days where plants reached Feekes stage 10.1 (head emergence). Plants were then destructively harvested and measured for total spike number, fresh weight, total reproductive tiller number, percent reproductive tillers, A canopy density and total dry weight. Percent reproductive tillers is calculated by dividing the number of reproductive tillers by the total number of spikes at harvest. A canopy density is calculated by subtracting the canopy density at treatment from the canopy density at harvest.

Butterhead lettuce = experiment: Heat stress tolerance in lettuce following ACC application at rosette stage; conditions: heat stress 34/30° C. nine days; for Canopy Density / Fresh Weight / Δ Canopy Density: n = 5; for Canopy Density, percent increase over stress control / Fresh Weight, percent increase over stress control / Δ Canopy Density, percent increase over stress control: vs stress control; for Canopy Density, percent increase over treatment control / Fresh Weight, percent increase over treatment control / Δ Canopy Density, percent increase over treatment control: vs treatment control
Method: Butterhead lettuce was seeded into ProMix BX (Premier Horticulture) and grown in a greenhouse. Three weeks post-sowing the lettuce was transferred to a growth cabinet under the following conditions: 24/18° C. day/night temperature under a 16/8 hour light/dark photoperiod. Plants were at head formation (rosette) stage following the first set of growth conditions. 4 days after transfer canopy density was calculated. Next, spray applications of 0, 10, 30 or 100 ppm ACC (n=5) were made using a track sprayer on Sep. 21, 2020. Next, two days following treatment, half of the plants were transferred to a second growth cabinet at 34/30° C. day/night temperature under a 16/8-hour light/dark photoperiod for nine days. These conditions constitute significant heat stress. Plants were then destructively harvested and measured for fresh weight, size, canopy density and A canopy density. A canopy density is calculated by subtracting the canopy density at treatment from the canopy density at harvest.

[1] = system: dwarf variety of Brassica napus; experiment: Heat stress tolerance in Brassica napus following ACC application; conditions: heat stress 36/30° C. seven days; for Seed Number per Pod / Seed Yield per Pod / Single Seed Weight: n = 10; for Seed Number per Pod, percent increase over treatment control / Seed Yield per Pod, percent increase over treatment control / Single Seed Weight, percent increase over treatment control: vs treatment control
Method: A dwarf variety of Brassica napus commonly used as an experimental model for the canola variety of B. napus was seeded into ProMix BX (Premier Horticulture) and grown in a greenhouse. […] Following spraying, plants were moved to a growth cabinet under the following conditions: 24/18 C day night temperatures under a 16/8 light dark period. Next, 2 days following treatment, half of the plants were transferred to a second growth cabinet at 36/30° C. day/night temperature under a 16/8-hour light/dark photoperiod for seven days. These conditions constitute early season heat stress. At all times flowers and pods were pruned to keep the number of pods to about 10. Plants were then destructively harvested and measured for seed yield, seed numbers, seed yield per pod, seed number per pod and single seed weight.

[2] = 100 ppm ACC spray at Feekes stage 5
[3] = 300 ppm ACC spray at Feekes stage 5
[4] = 10 ppm ACC spray at rosette stage
[5] = 30 ppm ACC spray at rosette stage
[6] = 100 ppm ACC spray at rosette stage

SMILES: NC1(C(=O)O)CC1 [ACC, 1-amino-1-cyclopropanecarboxylic acid]
- % Reproductive Tillers (Apogee wheat; [2]): 63.80%
- Fresh Weight (Apogee wheat; [2]): 17.95 grams
- Total Dry Weight (Apogee wheat; [2]): 4.31 grams
- Total Spike Number (Apogee wheat; [2]): 7
- Total Tiller Number (Apogee wheat; [2]): 4.38
- Δ Canopy Density (Apogee wheat; [2]): 2.65%
- % Reproductive Tillers, percent increase over stress control (Apogee wheat; 100 ppm ACC): (−11.5%)
- Fresh Weight, percent increase over stress control (Apogee wheat; 100 ppm ACC): (4.6%)
- Total Dry Weight, percent increase over stress control (Apogee wheat; 100 ppm ACC): (−5.5%)
- Total Spike Number, percent increase over stress control (Apogee wheat; 100 ppm ACC): (24.3%)
- Total Tiller Number, percent increase over stress control (Apogee wheat; 100 ppm ACC): (9.5%)
- Δ Canopy Density, percent increase over stress control (Apogee wheat; 100 ppm ACC): (3.5%)
- % Reproductive Tillers, percent increase over treatment control (Apogee wheat; 100 ppm ACC): [−0.8%]
- Fresh Weight, percent increase over treatment control (Apogee wheat; 100 ppm ACC): [5.8%]
- Total Dry Weight, percent increase over treatment control (Apogee wheat; 100 ppm ACC): [11.1%]
- Total Spike Number, percent increase over treatment control (Apogee wheat; 100 ppm ACC): [12.0%]
- Total Tiller Number, percent increase over treatment control (Apogee wheat; 100 ppm ACC): [12.9%]
- Δ Canopy Density, percent increase over treatment control (Apogee wheat; 100 ppm ACC): [5.2%]
- % Reproductive Tillers (Apogee wheat; [3]): 63.10%
- Fresh Weight (Apogee wheat; [3]): 16.74 grams
- Total Dry Weight (Apogee wheat; [3]): 4.33 grams
- Total Spike Number (Apogee wheat; [3]): 6.38
- Total Tiller Number (Apogee wheat; [3]): 3.88
- Δ Canopy Density (Apogee wheat; [3]): 2.36%
- % Reproductive Tillers, percent increase over stress control (Apogee wheat; 300 ppm ACC): (−12.5%)
- Fresh Weight, percent increase over stress control (Apogee wheat; 300 ppm ACC): (−2.4%)
- Total Dry Weight, percent increase over stress control (Apogee wheat; 300 ppm ACC): (−5.0%)
- Total Spike Number, percent increase over stress control (Apogee wheat; 300 ppm ACC): (13.3%)
- Total Tiller Number, percent increase over stress control (Apogee wheat; 300 ppm ACC): (−3.0%)
- Δ Canopy Density, percent increase over stress control (Apogee wheat; 300 ppm ACC): (−7.8%)
- % Reproductive Tillers, percent increase over treatment control (Apogee wheat; 300 ppm ACC): [−1.9%]
- Fresh Weight, percent increase over treatment control (Apogee wheat; 300 ppm ACC): [−1.4%]
- Total Dry Weight, percent increase over treatment control (Apogee wheat; 300 ppm ACC): [11.6%]
- Total Spike Number, percent increase over treatment control (Apogee wheat; 300 ppm ACC): [2.1%]
- Total Tiller Number, percent increase over treatment control (Apogee wheat; 300 ppm ACC): [0%]
- Δ Canopy Density, percent increase over treatment control (Apogee wheat; 300 ppm ACC): [−6.3%]
- Canopy Density (Butterhead lettuce; [4]): 15.58
- Fresh Weight (Butterhead lettuce; [4]): 93.94 grams
- Δ Canopy Density (Butterhead lettuce; [4]): 5.12
- Canopy Density, percent increase over stress control (Butterhead lettuce; 10 ppm ACC): (−11.5%)
- Fresh Weight, percent increase over stress control (Butterhead lettuce; 10 ppm ACC): (−8.5%)
- Δ Canopy Density, percent increase over stress control (Butterhead lettuce; 10 ppm ACC): (−24.9%)
- Canopy Density, percent increase over treatment control (Butterhead lettuce; 10 ppm ACC): [5.9%]
- Fresh Weight, percent increase over treatment control (Butterhead lettuce; 10 ppm ACC): [11.6%]
- Δ Canopy Density, percent increase over treatment control (Butterhead lettuce; 10 ppm ACC): [46.3%]
- Canopy Density (Butterhead lettuce; [5]): 16.65
- Fresh Weight (Butterhead lettuce; [5]): 115.11 grams
- Δ Canopy Density (Butterhead lettuce; [5]): 5.08
- Canopy Density, percent increase over stress control (Butterhead lettuce; 30 ppm ACC): (−5.4%)
- Fresh Weight, percent increase over stress control (Butterhead lettuce; 30 ppm ACC): (12.1%)
- Δ Canopy Density, percent increase over stress control (Butterhead lettuce; 30 ppm ACC): (−25.5%)
- Canopy Density, percent increase over treatment control (Butterhead lettuce; 30 ppm ACC): [13.2%]
- Fresh Weight, percent increase over treatment control (Butterhead lettuce; 30 ppm ACC): [36.8%]
- Δ Canopy Density, percent increase over treatment control (Butterhead lettuce; 30 ppm ACC): [45.1%]
- Canopy Density (Butterhead lettuce; [6]): 15.80
- Fresh Weight (Butterhead lettuce; [6]): 97.51 grams
- Δ Canopy Density (Butterhead lettuce; [6]): 4.11
- Canopy Density, percent increase over stress control (Butterhead lettuce; 100 ppm ACC): (−10.2%)
- Fresh Weight, percent increase over stress control (Butterhead lettuce; 100 ppm ACC): (−5.1%)
- Δ Canopy Density, percent increase over stress control (Butterhead lettuce; 100 ppm ACC): (−39.7%)
- Canopy Density, percent increase over treatment control (Butterhead lettuce; 100 ppm ACC): [7.4%]
- Fresh Weight, percent increase over treatment control (Butterhead lettuce; 100 ppm ACC): [15.9%]
- Δ Canopy Density, percent increase over treatment control (Butterhead lettuce; 100 ppm ACC): [17.4%]
- Seed Number per Pod ([1]; 10 ppm ACC spray at flowering): 14.8
- Seed Yield per Pod ([1]; 10 ppm ACC spray at flowering): 0.029 grams
- Single Seed Weight ([1]; 10 ppm ACC spray at flowering): 0.0019 grams
- Seed Number per Pod, percent increase over treatment control ([1]; 10 ppm ACC): [6.5%]
- Seed Yield per Pod, percent increase over treatment control ([1]; 10 ppm ACC): [0%]
- Single Seed Weight, percent increase over treatment control ([1]; 10 ppm ACC): [−9.5%]
- Seed Number per Pod ([1]; 30 ppm ACC spray at flowering): 15.1
- Seed Yield per Pod ([1]; 30 ppm ACC spray at flowering): 0.033 grams
- Single Seed Weight ([1]; 30 ppm ACC spray at flowering): 0.0021 grams
- Seed Number per Pod, percent increase over treatment control ([1]; 30 ppm ACC): [8.6%]
- Seed Yield per Pod, percent increase over treatment control ([1]; 30 ppm ACC): [13.8%]
- Single Seed Weight, percent increase over treatment control ([1]; 30 ppm ACC): [0%]
- Seed Number per Pod ([1]; 100 ppm ACC spray at flowering): 17.4
- Seed Yield per Pod ([1]; 100 ppm ACC spray at flowering): 0.036 grams
- Single Seed Weight ([1]; 100 ppm ACC spray at flowering): 0.0020 grams
- Seed Number per Pod, percent increase over treatment control ([1]; 100 ppm ACC): [25.2%]
- Seed Yield per Pod, percent increase over treatment control ([1]; 100 ppm ACC): [24.1%]
- Single Seed Weight, percent increase over treatment control ([1]; 100 ppm ACC): [−4.8%]
- Seed Number per Pod ([1]; 300 ppm ACC spray at flowering): 15.6
- Seed Yield per Pod ([1]; 300 ppm ACC spray at flowering): 0.030 grams
- Single Seed Weight ([1]; 300 ppm ACC spray at flowering): 0.0019 grams
- Seed Number per Pod, percent increase over treatment control ([1]; 300 ppm ACC): [12.2%]
- Seed Yield per Pod, percent increase over treatment control ([1]; 300 ppm ACC): [3.4%]
- Single Seed Weight, percent increase over treatment control ([1]; 300 ppm ACC): [−9.5%]
